# Measured values published in PMC8205226, “HIV-1 Integrase Inhibitors with Modifications That Affect Their Potencies against Drug Resistant Integrase Mutants” (ACS Infectious Diseases, 2021).
# What was measured:
# Assay type in all cases: cell-based
# HIV-1 IN mutant S230R = assay: single-round infectivity assay, S230R IN mutant
# Experimental: (§1) Figure 5 Antiviral potencies of the new compounds against IN with mutations in the […]. The EC50 values were determined using a vector that carries the IN mutant in a single round infection assay. […] Error bars represent the standard deviations of independent experiments, n = 4, performed in triplicate.
# (§2) WT and mutant HIV-1 viral vectors were used in single-round infectivity assays to determine the antiviral potencies (EC50 values) of the compounds and the effects of the mutants on the EC50 values as previously described.[30],[54] Single round infectivity measurements were determined as done previously.[38]
# (§3) The vector pNLNgoMIVR-ΔENV.LUC has been described previously.[26] To produce the new IN mutants used in this study, the IN open reading frame was removed from pNLNgoMIVR-ΔENV.LUC by digestion with KpnI and SalI, and the resulting fragment was inserted between the KpnI and SalI sites of pBluescript KS+. Using that construct as the wild-type template, we prepared the following HIV-1 IN mutants using the QuikChange II XL site directed mutagenesis kit (Agilent Technologies, Santa Clara, CA) protocol: N117A, N117H, P142A, P142H, P142S, Y143C, Y143H, S230R, R231G, and R231K. The following sense oligonucleotides were used with matching cognate antisense oligonucleotides (not shown) (Integrated DNA Technologies, Coralville, IA) in the mutagenesis: N117A, 5′-[…]-3′; N117H, 5′-[…]-3′; P142A, 5′-[…]-3′; P142H, 5′-[…]-3′; P142S, 5′-[…]-3′; Y143C, 5′- […]-3′; Y143H, 5′-[…]-3′; S230R, 5′- […]-3′; R231G, 5′-[…]-3′; R231K, 5′-[…]-3′.
# HIV-1 IN mutant N117H = assay: single-round infectivity assay, N117H IN mutant
# Experimental: (§4) The EC50 values were determined using a vector that carries the IN mutant in a single round infection assay. […] Error bars represent the standard deviations of independent experiments, n = 4, performed in triplicate.
# as §2, §3
# HIV-1 IN mutant R231G = assay: single-round infectivity assay, R231G IN mutant
# Experimental: as §1, §2, §3
# HIV-1 IN mutant P142A = assay: single-round infectivity assay, P142A IN mutant
# Experimental: (§5) Figure 4 Mutations in the β5-α3 loop affect the antiviral potencies of the new compounds. The EC50 values were determined using a vector that carries the IN mutant in a single round infection assay. […] Error bars represent the standard deviations of independent experiments, n = 4, performed in triplicate.
# as §2, §3
# HIV-1 IN mutant S119R = assay: single-round infectivity assay, S119R IN mutant
# Experimental: as §4, §2, §3
# HIV-1 IN mutant G118R = assay: single-round infectivity assay, G118R IN mutant
# Experimental: as §4, §2, §3
# HIV-1 IN mutant N117A = assay: single-round infectivity assay, N117A IN mutant
# Experimental: as §4, §2, §3
# HIV-1 IN mutant N155H = assay: single-round infectivity assay, N155H IN mutant
# Experimental: (§6) Figure 2 Antiviral activities of the new compounds against RAL-resistant mutants. The EC50 values were determined using a vector that carries WT HIV-1 IN and the RAL-resistant mutants in a single round infection assay. […] Error bars represent the standard deviations of independent experiments, n = 4, performed in triplicate. The graph has a maximum value of 550 nM.
# as §2, §3
# HIV-1 IN mutant Y143H = assay: single-round infectivity assay, Y143H IN mutant; settings: EC50 compound / EC50 DTG
# Experimental: as §5, §2, §3
# HIV-1 IN mutant P142H = assay: single-round infectivity assay, P142H IN mutant
# Experimental: as §4
# Single round infectivity measurements were determined as done previously.[38]
# as §3
# HIV-1 IN mutant Y143R = assay: single-round infectivity assay, Y143R IN mutant
# Experimental: as §6, §2, §3
# HIV-1 IN mutant R231K = assay: single-round infectivity assay, R231K IN mutant
# Experimental: as §1, §2, §3
# WT HIV-1 = assay: single-round infectivity assay, WT HIV-1 IN vector; settings: Human immunodeficiency virus 1, read-out: EC50 values WT, vector carrying WT HIV-1 IN, single round infection, n = 4; new compounds
# Experimental: as §6, §2, §3
# HIV-1 IN mutant P142S = assay: single-round infectivity assay, P142S IN mutant
# Experimental: as §5, §2, §3
# [1] = system: HIV-1 IN double mutant G140S/Q148H; assay: single-round infectivity assay, G140S/Q148H IN double mutant
# Experimental: as §6, §2, §3
# HIV-1 IN mutant Y143C = assay: single-round infectivity assay, Y143C IN mutant; settings: EC50 compound / EC50 DTG
# Experimental: as §5, §2, §3
# [2] = fold change in EC50, IN mutant versus WT HIV-1
structure (smiles),measurement,setting,value
"CS(=O)(=O)CCc1cnc2c(c1)c(N)c(C(=O)NCc1ccc(F)cc1F)c(=O)n2O [6u, 4-Amino-N-(2,4-difluorobenzyl)-1-hydroxy-6-(2-(methylsulfonyl)ethyl)-2-oxo-1,2-dihydro-1,8-naphthyridine-3-carboxamide]",ratio of the EC50s (our compound relative to DTG) against S230R,HIV-1 IN mutant S230R; EC50 compound / EC50 DTG,19.1
same,EC50,"HIV-1 IN mutant S230R; Human immunodeficiency virus 1, read-out: EC50 values S230R",88 ± 14.5 nM
same,FC S230R,HIV-1 IN mutant S230R; [2],3.3
same,ratio of the EC50s (our compound relative to DTG) against N117H,HIV-1 IN mutant N117H; EC50 compound / EC50 DTG,24.3
same,EC50,"HIV-1 IN mutant N117H; Human immunodeficiency virus 1, read-out: EC50 values N117H",58.3 ± 5.9 nM
same,FC N117H,HIV-1 IN mutant N117H; [2],2.2
same,ratio of the EC50s (our compound relative to DTG) against R231G,HIV-1 IN mutant R231G; EC50 compound / EC50 DTG,22.5
same,EC50,"HIV-1 IN mutant R231G; Human immunodeficiency virus 1, read-out: EC50 values R231G",31.5 ± 4 nM
same,FC R231G,HIV-1 IN mutant R231G; [2],1.2
same,ratio of the EC50s (our compound relative to DTG) against P142A,HIV-1 IN mutant P142A; EC50 compound / EC50 DTG,20.3
same,EC50,"HIV-1 IN mutant P142A; Human immunodeficiency virus 1, read-out: EC50 values P142A",50.8 ± 6.4 nM
same,ratio of the EC50s (our compound relative to DTG) against S119R,HIV-1 IN mutant S119R; EC50 compound / EC50 DTG,24.5
same,EC50,"HIV-1 IN mutant S119R; Human immunodeficiency virus 1, read-out: EC50 values S119R",56.4 ± 11 nM
same,FC S119R,HIV-1 IN mutant S119R; [2],2.1
same,ratio of the EC50s (our compound relative to DTG) against G118R,HIV-1 IN mutant G118R; EC50 compound / EC50 DTG,16.5
same,EC50,"HIV-1 IN mutant G118R; Human immunodeficiency virus 1, read-out: EC50 values G118R",214 ± 26.3 nM
same,FC G118R,HIV-1 IN mutant G118R; [2],7.9
same,ratio of the EC50s (our compound relative to DTG) against N117A,HIV-1 IN mutant N117A; EC50 compound / EC50 DTG,30.0
same,EC50,"HIV-1 IN mutant N117A; Human immunodeficiency virus 1, read-out: EC50 values N117A",15 nM
same,FC N117A,HIV-1 IN mutant N117A; [2],0.6
same,ratio of the EC50s (our compound relative to DTG) against N155H,HIV-1 IN mutant N155H; EC50 compound / EC50 DTG,9.1
same,EC50,"HIV-1 IN mutant N155H; Human immunodeficiency virus 1, read-out: EC50 values N155H",32.8 ± 6 nM
same,FC N155H,HIV-1 IN mutant N155H; [2],1.2
same,ratio of the EC50s (our compound relative to DTG) against Y143H,HIV-1 IN mutant Y143H,17.0
same,ratio of the EC50s (our compound relative to DTG) against P142H,HIV-1 IN mutant P142H; EC50 compound / EC50 DTG,16.1
same,EC50,"HIV-1 IN mutant P142H; Human immunodeficiency virus 1, read-out: EC50 values P142H",45.1 ± 5.2 nM
same,ratio of the EC50s (our compound relative to DTG) against Y143R,HIV-1 IN mutant Y143R; EC50 compound / EC50 DTG,6.4
same,EC50,"HIV-1 IN mutant Y143R; Human immunodeficiency virus 1, read-out: EC50 values Y143R",27.5 ± 0.4 nM
same,FC Y143R,HIV-1 IN mutant Y143R; [2],1.0
same,ratio of the EC50s (our compound relative to DTG) against R231K,HIV-1 IN mutant R231K; EC50 compound / EC50 DTG,18.7
same,EC50,"HIV-1 IN mutant R231K; Human immunodeficiency virus 1, read-out: EC50 values R231K, single round infection, n = 4",78.4 ± 9.9 nM
same,FC R231K,HIV-1 IN mutant R231K; [2],2.9
same,EC50,WT HIV-1,27 ± 3.2 nM
same,ratio of the EC50s (our compound relative to DTG) against P142S,HIV-1 IN mutant P142S; EC50 compound / EC50 DTG,23.4
same,EC50,"HIV-1 IN mutant P142S; Human immunodeficiency virus 1, read-out: EC50 values P142S",51.5 ± 2.4 nM
same,ratio of the EC50s (our compound relative to DTG) against G140S/Q148H,[1]; EC50 compound / EC50 DTG,20.3
same,EC50,"[1]; Human immunodeficiency virus 1, read-out: EC50 values G140S/Q148H",118 ± 31.3 nM
same,FC G140S/Q148H,[1]; [2],4.4
same,ratio of the EC50s (our compound relative to DTG) against Y143C,HIV-1 IN mutant Y143C,31.4
